Measurements reported in the supplement of paper PMC10307832.

Columns and labels:
Assay in all cases: relative viability (nuclei count vs DMSO), 5 days (fraction); higher = more cells survive
[1] = compound: C1=CC(=CC=C1NC(=S)NNC2=C(C=C(C=C2[N+](=O)[O-])C(F)(F)F)[N+](=O)[O-])F [Kobe2602] + CCNC(=O)c1noc(-c2cc(C(C)C)c(O)cc2O)c1-c1ccc(CN2CCOCC2)cc1 [Luminespib] (partner 0.01 µM)
Procedure, shortened: (§1)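 Lung cancer cell lines in 1536-well plates got either a single drug or a fixed anchor-drug dose together with five library-drug doses (not always all listed) in √10 steps, by pin tool, on the day after seeding. Nuclei were counted after 5 days, and relative viability is the treated-to-vehicle ratio of nuclei counts. Values are medians of duplicate plates.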

[2] = compound: C1=CC(=CC=C1NC(=S)NNC2=C(C=C(C=C2[N+](=O)[O-])C(F)(F)F)[N+](=O)[O-])F [Kobe2602] + Nc1nc2[nH]cc(CCc3ccc(C(=O)N[C@@H](CCC(=O)O)C(=O)O)cc3)c2c(=O)[nH]1 [Pemetrexed] (partner 0.2 µM)
Procedure, shortened: as §1

[3] = compound: COc1cc2nccc(Oc3ccc(NC(=O)C4(C(=O)Nc5ccc(F)cc5)CC4)cc3)c2cc1OC [Cabozantinib] + COc1cc2c(Oc3ccc(NC(=O)C4(C(=O)Nc5ccc(F)cc5)CC4)cc3F)ccnc2cc1OCCCN1CCOCC1 [Foretinib] (partner 0.25 µM)
Procedure, shortened: as §1

[4] = compound: O[C@@H](COc1cccc2ncccc12)CN1CCN([C@@H]2c3ccccc3[C@@H]3[C@H](c4ccccc42)C3(F)F)CC1 [Zosuquidar] + COc1cccc2cc(-c3nc([C@H]4CC[C@H](C(=O)O)CC4)n4ncnc(N)c34)[nH]c12 [OSI-027] (partner 0.5 µM)
Procedure, shortened: as §1

Cell Line	relative viability ([1]; first compound 0.2 µM)	relative viability ([1]; first compound 0.6325 µM)	relative viability ([1]; first compound 2 µM)	relative viability ([1]; first compound 6.325 µM)	relative viability ([1]; first compound 20 µM)	relative viability ([2]; first compound 0.2 µM)	relative viability ([2]; first compound 0.6325 µM)	relative viability ([2]; first compound 2 µM)	relative viability ([2]; first compound 6.325 µM)	relative viability ([2]; first compound 20 µM)	relative viability ([3]; first compound 0.02 µM)	relative viability ([3]; first compound 0.06325 µM)	relative viability ([3]; first compound 0.2 µM)	relative viability ([3]; first compound 0.6325 µM)	relative viability ([3]; first compound 2 µM)	relative viability ([4]; first compound 0.01 µM)	relative viability ([4]; first compound 0.03162 µM)	relative viability ([4]; first compound 0.1 µM)	relative viability ([4]; first compound 0.3162 µM)	relative viability ([4]; first compound 1 µM)
NCI-H1563	0.579	0.492	0.52	0.543	0.512	0.846	0.717	0.611	0.786	0.847	1.02	0.907	0.953	0.912	0.893	0.751	0.663	0.753	0.762	0.827
NCI-H1944	0.74	0.801	0.608	0.739	0.645	0.632	0.658	0.738	0.626	0.62	1.04	0.938	0.9	0.895	0.867	0.381	0.384	0.328	0.479	0.412
NCI-H322M	0.895	0.944	0.855	0.478	1.06	0.63	0.646	0.605	0.652	0.631	0.967	1.21	0.899	0.874	0.931	0.529	0.67	0.485	0.66	0.575
NCI-H2085	0.393	0.466		0.478	0.436	0.944	0.882	0.959	0.904	0.901	0.765	1.05	0.982	1.05	0.855	0.707	0.779	0.468	0.84	0.746
RERF-LC-KJ	1.12	1.17	1.2	1.03	0.515	0.468	0.469	0.498	0.496	0.449	0.921	0.852	0.863	0.899	0.943	0.543	0.565	0.634	0.691	0.623
NCI-H1355	0.795	0.686	0.607	0.775	0.75	1.06	1.07	0.992	0.983	0.968	1.08	1.1	1.03	1.08	0.949	0.395	0.409	0.299	0.449	0.386
NCI-H1650	0.188	0.185	0.177	0.211	0.178	0.394	0.355	0.363	0.335	0.374	1.31	1.48	1.02	1.27	0.978	0.737	0.607	0.601	0.759	0.669
PC-14	0.16	0.161	0.307	0.151	0.149	0.15	0.137	0.134	0.15	0.14	0.99	1		1.05	0.976	0.903	0.714	0.826	1.02	0.78
NCI-H1755	0.334	0.425	0.414	0.395	0.322	0.514	0.419	0.447	0.391	0.398	0.911	1.01	0.92	0.917	0.856	0.736	0.67	0.516	0.821	0.722
NCI-H1651	0.673	0.911	0.642	0.758	0.93	0.526	0.51	0.569	0.573	0.731	1	0.739	1.05	0.875	0.783	0.78	0.694	0.633	0.657	0.725
NCI-H661	0.945	0.904	0.948	0.946	0.9	0.893	0.947	0.913	0.932	0.924	0.985	1.04	1.01	1.02	1.09	0.654	0.67	0.596	0.714	0.695
NCI-H358	0.364	0.324	0.237	0.477	0.349	0.196	0.208	0.17	0.166	0.178	0.662	0.839	0.668	0.662	0.652	0.779	0.769	0.618	0.736	0.734
NCI-H1395	0.691	0.869	0.815	0.726	0.662	1.04	1.01	0.931	0.967	0.843	0.93	1.17	1.07	1.06	0.932	0.653	0.578	0.552	0.797	0.677
HCC-15	0.411	0.272	0.301	0.255	0.384	0.238	0.216	0.223	0.229	0.211	1.26	1.13	1.06	1.04	1.07	0.653	0.64	0.568	0.779	0.725
PC-3 [JPC-3]	0.746	0.799	0.713	0.748	0.649	1.26	1.33	1.11	1.11	1.06	1.19	1.2		1.09	1.04	0.738	0.787	0.562	0.789	0.796
HOP-62	0.933	0.957	0.866	0.88	0.87	0.43	0.336	0.312	0.323	0.316	1.17	1.19	1.06	1	1.24	0.768	0.833	0.817	0.865	0.906
